Molecular target: T1, Pnao (pseudooxynicotine amine oxidase) (Pseudomonas putida, UniProt F8G0P1)
T1 construct: signal peptide removed (from Ala45 onward); N-terminal His-SUMO tag cleaved with ULP1; pET28a, E. coli BL21 (DE3); FAD-containing homodimer
Assay: X-ray crystal structure, […] Å
Type: binding
Settings: crystals pH 9; oxidized FAD at the active site

T1 sequence (F8G0P1 45-496): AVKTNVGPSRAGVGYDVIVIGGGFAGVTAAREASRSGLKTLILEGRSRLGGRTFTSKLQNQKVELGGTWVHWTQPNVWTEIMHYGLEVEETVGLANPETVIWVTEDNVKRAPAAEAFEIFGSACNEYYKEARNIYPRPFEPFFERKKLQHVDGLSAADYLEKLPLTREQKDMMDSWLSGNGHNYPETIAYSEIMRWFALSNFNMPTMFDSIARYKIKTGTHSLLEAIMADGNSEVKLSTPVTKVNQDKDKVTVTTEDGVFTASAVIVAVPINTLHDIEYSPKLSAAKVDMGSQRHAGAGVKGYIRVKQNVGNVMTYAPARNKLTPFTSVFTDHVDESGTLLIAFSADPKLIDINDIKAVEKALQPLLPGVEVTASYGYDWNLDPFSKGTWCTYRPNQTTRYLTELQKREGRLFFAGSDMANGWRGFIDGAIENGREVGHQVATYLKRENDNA

SMILES: Cc1cc2nc3c(=O)[nH]c(=O)nc-3n(C[C@H](O)[C@H](O)[C@H](O)COP(=O)(O)OP(=O)(O)OC[C@H]3O[C@@H](n4cnc5c(N)ncnc54)[C@H](O)[C@@H]3O)c2cc1C [flavin adenine dinucleotide]
- X-ray crystal structure, 2.60 Å: Our structure of Pnao contained oxidized FAD

Source: publication PMC9396064, “The enzyme pseudooxynicotine amine oxidase from Pseudomonas putida S16 is not an oxidase, but a dehydrogenase” (The Journal of Biological Chemistry, 2022)
